Measured values: paper PMC6199744, “Development of Chemical Proteomics for the Folateome and Analysis of the Kinetoplastid Folateome” (ACS Infectious Diseases, 2018)
Where two headings read alike, the source gives them in different places.

Tested on: T. brucei lysate proteins
Format: binding, Trypanosoma brucei
Settings: for abundance relative to vehicle: X016405, bead mixture, free compound 100.0uM, Trypanosoma brucei

Nc1nc2cccc(-c3ccccc3)c2n1Cc1ccc(Cl)c(Cl)c1 [compound 3]
abundance relative to vehicle (protein TB427.02.1850): 0.84 | abundance relative to vehicle (protein TB427.06.4760): 0.94 | abundance relative to vehicle (protein TB427.07.3620): 0.78 | abundance relative to vehicle (protein TB427.08.1880): 1.20 | fold change - vehicle control (protein RHS6A (CZT00028360.1)): 0.89 | fold change - vehicle control (protein TB09.160.1250 HY[…], CONSERVED): 0.88 | fold change - vehicle control (protein TB09.160.3670 RIBOSOMAL PROTEIN S6, PUTATIVE): 0.98 | fold change - vehicle control (protein TB09.211.2630 60S RIBOSOMAL PROTEIN L23, PUTATIVE): 0.92 | fold change - vehicle control (protein TB09.211.4513 KIN[…] PROTEIN KMP-11): 1.1 | fold change - vehicle control (protein TB11.V4.0005 RIBONUCLEOSIDE-DIPHOSPHATE REDUCTASE SMALL CHAIN): 0.81 | fold change - vehicle control (protein TB11.01.0870 R[…] A, 51KDA SUBUNIT, PUTATIVE): 1.11 | fold change - vehicle control (protein TB11.01.2560 40S RIBOSOMAL PROTEIN SA, PUTATIVE): 0.92 | fold change - vehicle control (protein TB11.01.4880 HY[…], CONSERVED): 0.9 | fold change - vehicle control (protein TB11.01.7090 HY[…], CONSERVED): 0.87 | fold change - vehicle control (protein TB11.02.2510 GUANINE NUCLEOTIDE-BINDING BETA SUBUNIT-LIKE PROTEIN): 0.96 | fold change - vehicle control (protein TB11.02.4170 40S RIBOSOMAL PROTEIN S5, PUTATIVE): 0.92 | fold change - vehicle control (protein TB11.03.0250 C[…]): 1.22 | fold change - vehicle control (protein TB11.46.0009 HY[…], CONSERVED): 0.89 | fold change - vehicle control (protein TB427TMP.01.0620 HY[…], CONSERVED): 0.76 | fold change - vehicle control (protein TB427TMP.01.1475 40S RIBOSOMAL PROTEIN S27, PUTATIVE): 1.02 | fold change - vehicle control (protein TB427TMP.01.4280 HY[…], CONSERVED): 0.82 | fold change - vehicle control (protein TB427TMP.01.4650 HY[…], CONSERVED): 0.97 | fold change - vehicle control (protein TB427TMP.01.4810 HY[…], CONSERVED): 0.99 | fold change - vehicle control (protein TB427TMP.01.5680 HY[…], CONSERVED): 0.54 | fold change - vehicle control (protein TB427TMP.01.8390 HY[…], CONSERVED): 0.84 | fold change - vehicle control (protein TB427TMP.02.0230 HY[…], CONSERVED): 1.04 | fold change - vehicle control (protein TB427TMP.02.0460 NUCLEOPORIN): 0.82 | fold change - vehicle control (protein TB427TMP.02.1106 NUCLEOBASE/NUCLEOSIDE TRANSPORTER 8 1): 1.05 | fold change - vehicle control (protein TB427TMP.160.2050 ENDO-BETA-N-ACETYLGLUCOSAMINIDASE, PUTATIVE): 0.92 | fold change - vehicle control (protein TB427TMP.160.4310 GLUTAMATE DEHYDROGENASE): 0.97 | fold change - vehicle control (protein TB427TMP.160.4450 40S RIBOSOMAL PROTEIN S3, PUTATIVE): 0.97 | fold change - vehicle control (protein TB427TMP.160.4630 HY[…], CONSERVED): 0.86 | fold change - vehicle control (protein TB427TMP.160.5200 HY[…], CONSERVED): 0.69 | fold change - vehicle control (protein TB427TMP.160.5670 HY[…], CONSERVED): 0.83 | fold change - vehicle control (protein TB427TMP.211.0930 POLYADENYLATE-BINDING PROTEIN 1): 0.97 | fold change - vehicle control (protein TB427TMP.211.1750 MIT[…] PROTEIN, PUTATIVE): 0.88 | fold change - vehicle control (protein TB427TMP.211.3510 ATP-DEPENDENT DEAD/H RNA HELICASE, PUTATIVE): 1.06 | fold change - vehicle control (protein TB427TMP.211.4540 RNA-BINDING PROTEIN, PUTATIVE): 1.05 | fold change - vehicle control (protein TB427TMP.244.2840 HY[…], CONSERVED): 0.92 | fold change - vehicle control (protein TB427.01.1240 CYTIDINE TR[…], PUTATIVE): 0.84 | fold change - vehicle control (protein TB427.01.2570 COATOMER BETA SUBUNIT): 0.73 | fold change - vehicle control (protein TB427.01.3910 HY[…], CONSERVED): 0.78 | fold change - vehicle control (protein TB427.02.450 RETRO[…] SPOT (RHS) PROTEIN, PUTATIVE): 0.81 | fold change - vehicle control (protein TB427.02.6240): 1.08 | fold change - vehicle control (protein TB427.04.3350 HY[…], CONSERVED): 0.72 | fold change - vehicle control (protein TB427.04.3890 ATP-DEPENDENT RNA HELICASE, PUTATIVE): 0.92 | fold change - vehicle control (protein TB427.04.4870 AMINO ACID TRANSPORTER, PUTATIVE): 0.87 | fold change - vehicle control (protein TB427.04.750 50S RIBOSOMAL PROTEIN L7AE, PUTATIVE): 1.12 | fold change - vehicle control (protein TB427.04.960 HY[…], CONSERVED): 0.88 | fold change - vehicle control (protein TB427.05.1490 HY[…], CONSERVED): 0.8 | fold change - vehicle control (protein TB427.05.1780 HY[…], CONSERVED): 0.77 | fold change - vehicle control (protein TB427.05.3030 INTR[…] PROTEIN IFT122, PUTATIVE): 0.89 | fold change - vehicle control (protein TB427.05.4560 GUANINE DEAMINASE, PUTATIVE): 0.7 | fold change - vehicle control (protein TB427.06.2150 CELL DIVISION CYCLE PROTEIN 16, PUTATIVE): 0.83 | fold change - vehicle control (protein TB427.06.3110 PROTEIN KINASE, PUTATIVE (CRK11)): 0.87 | fold change - vehicle control (protein TB427.06.5110 DAMAGE-SPECIFIC DNA BINDING PROTEIN, PUTATIVE): 0.98 | fold change - vehicle control (protein TB427.07.2670 HY[…], CONSERVED): 3.19 | fold change - vehicle control (protein TB427.07.3040 HY[…], CONSERVED): 0.98 | fold change - vehicle control (protein TB427.07.3530 HY[…], CONSERVED): 0.87 | fold change - vehicle control (protein TB427.07.4970 GLUTAMINE SYNTHETASE, PUTATIVE): 0.9 | fold change - vehicle control (protein TB427.07.5560 GLUCOSAMINE-FRUCTOSE-6-PHOSPHATE AMINOTRANSFERASE, PUTATIVE): 0.84 | fold change - vehicle control (protein TB427.07.5890 HY[…], CONSERVED): 0.79 | fold change - vehicle control (protein TB427.07.7070 HY[…], CONSERVED): 0.62 | fold change - vehicle control (protein TB427.07.7460 HY[…], CONSERVED): 0.91 | fold change - vehicle control (protein TB427.08.1500 HY[…], CONSERVED): 0.95 | fold change - vehicle control (protein TB427.08.1840 HY[…], CONSERVED): 0.95 | fold change - vehicle control (protein TB427.08.1960 HY[…], CONSERVED): 0.78 | fold change - vehicle control (protein TB427.08.2080 HY[…], CONSERVED): 1.08 | fold change - vehicle control (protein TB427.08.3750 NUCLEOLAR PROTEIN, PUTATIVE): 0.92 | fold change - vehicle control (protein TB427.08.6390 LYSOPHOSPHOLIPASE, PUTATIVE): 1.03 | fold change - vehicle control (protein TB427.10.10610 PROTEIN TYROSINE PHOSPHATASE, PUTATIVE): 0.69 | fold change - vehicle control (protein TB427.10.1100 60S RIBOSOMAL PROTEIN L9, PUTATIVE): 0.86 | fold change - vehicle control (protein TB427.10.12740): 0.9 | fold change - vehicle control (protein TB427.10.14660 HY[…], CONSERVED): 1.05 | fold change - vehicle control (protein TB427.10.15720 […]-ATP-ASE SUBUNIT 9): 0.82 | fold change - vehicle control (protein TB427.10.2440 METACASPASE MCA4): 0.84 | fold change - vehicle control (protein TB427.10.2900 IMPORTIN BETA-1 SUBUNIT, PUTATIVE): 0.79 | fold change - vehicle control (protein TB427.10.3470 HY[…], CONSERVED): 0.74 | fold change - vehicle control (protein TB427.10.4110 60S RIBOSOMAL PROTEIN L30): 0.91 | fold change - vehicle control (protein TB427.10.4610 […]-MANNOSE SYNTHASE, PUTATIVE): 0.85 | fold change - vehicle control (protein TB427.10.5250 HY[…], CONSERVED): 0.82 | fold change - vehicle control (protein TB427.10.5840 T[…] 1-BETA, PUTATIVE): 0.65 | fold change - vehicle control (protein TB427.10.7410 SUCCINYL-COA LIGASE GDP-FORMING] BETA-CHAIN, PUTATIVE): 0.85 | fold change - vehicle control (protein TB927.10.12960 RAS-RELATED PROTEIN RAB-5): 0.9 | fold change - vehicle control (protein TB927.10.14800 PROTEIN KINASE, PUTATIVE): 1.09 | fold change - vehicle control (protein TB927.10.2980 […]-ATPASE SUBUNIT 11): 1.07 | fold change - vehicle control (protein TB927.10.3660 ASPARTATE AMINOTRANSFERASE): 0.86 | fold change - vehicle control (protein TB927.10.4570 […] 2): 0.66 | fold change - vehicle control (protein TB927.10.5140 PROTEIN KINASE, PUTATIVE): 1.06 | fold change - vehicle control (protein TB927.10.560 40S RIBOSOMAL PROTEINS S11, PUTATIVE): 0.95 | fold change - vehicle control (protein TB927.10.6510 CHAPERONIN HSP60, MIT[…]): 0.86 | fold change - vehicle control (protein TB927.3.1840 3-OXO-5-ALPHA-STEROID 4-DEHYDROGENASE, PUTATIVE): 0.92 | fold change - vehicle control (protein TB927.3.3780 TRYPAREDOXIN): 0.85 | fold change - vehicle control (protein TB927.3.740 HY[…], CONSERVED): 0.91 | fold change - vehicle control (protein TB927.4.2740 HY[…], CONSERVED): 1.05 | fold change - vehicle control (protein TB927.4.3590 T[…] 1-BETA, PUTATIVE): 0.69 | fold change - vehicle control (protein TB927.6.4320 HY[…], CONSERVED): 0.75 | fold change - vehicle control (protein TB927.7.2550 […] SUBUNIT 5): 0.86 | fold change - vehicle control (protein TB927.7.2980 HY[…], CONSERVED): 0.75
